Test results published in US20120122991A1, “METHOD FOR TREATING CANCER BY INCREASING AMP-ACTIVATED KINASE ACTIVITY” (Dana-Farber Cancer Institute, Inc., priority 2003, published 2012).

Experiments:
mTOR signaling = mTOR signaling (S6K1, 4E-BP1 phosphorylation) in transfected HeLa cells; format: cell-based, human; conditions: HeLa cells with wild-type LKB1, 2 mM AICAR for 2 h
Method: FIG. 6A: Subconfluent cycling littermate-matched primary MEFs of the indicated genotype were left untreated (NT) or were treated with 2 mM AICAR for 2 h. Total cell extracts were immunoblotted for phospho-Thr172 AMPK (P-AMPK), phospho Ser79 ACC (P-ACC), phospho-Thr389 S6K1 (P-S6K1), phospho-Ser9 GSK-3b (P-GSK-3), and phospho-Ser235/236 S6 ribosomal protein (P-S6). FIG. 6B: An immortalized LKB1−/− MEF cell line was reconstituted with vector (v), wild-type (wt) or kinase-dead (kd) human LKB1-expressing retroviruses. Cells were treated as in FIG. 6A. eIF4E was used as a loading control. *represents a cross-reactive band with the anti-LKB1 antisera as characterized previously (Shaw et al. (2004) Proc. Natl. Acad. Sci. USA 101, 3329-3335). FIG. 6C: Endogenous 5′ cap complexes were isolated from LKB1 primary MEFs as in A. 10% of the total cell lysate is shown in the left panels; cap complexes purified on 7-methyl sepharose are shown in right panels. Each were immunoblotted with total 4E-BP1 and eIF4E antibodies. eIF4E is shown as a loading control. FIG. 6D: Hela cells (which are LKB1-deficient) were transiently transfected with vector, FLAG-tagged wild-type, or kinase-dead LKB1 along with an HA-tagged S6K1 or an HA-tagged 4E-BP1 construct, then treated where indicated with 2 mM AICAR for 2 h. […]

quiescent cells = conditions: cited from earlier work
AMPK = assay: Immunoblot of phospho-Thr172 AMPK and phospho-Ser79 ACC in MEFs; format: cell-based, mouse; conditions: 2 mM AICAR for 2 h
Method: FIG. 3a: Littermate MEFs of the indicated LKB1 genotypes were left untreated (NT) or treated with 0.1 mM H2O2 for 20 mins or 2 mM AICAR for 2 h. Total cell extracts were immunoblotted for phospho-Thr 172 AMPK or phospho Ser79 ACC, as well as for total AMPK and LKB1. FIG. 3b: An immortalized LKB1-deficient MEF cell line was reconstituted with human (hu) or mouse (ms) WT or KD LKB1 expressing retroviruses. The asterisk (*) represents a background band that serves as a loading control.
FIG. 6A: Subconfluent cycling littermate-matched primary MEFs of the indicated genotype were left untreated (NT) or were treated with 2 mM AICAR for 2 h. Total cell extracts were immunoblotted for phospho-Thr172 AMPK (P-AMPK), phospho Ser79 ACC (P-ACC), phospho-Thr389 S6K1 (P-S6K1), phospho-Ser9 GSK-3b (P-GSK-3), and phospho-Ser235/236 S6 ribosomal protein (P-S6). FIG. 6B: An immortalized LKB1−/− MEF cell line was reconstituted with vector (v), wild-type (wt) or kinase-dead (kd) human LKB1-expressing retroviruses. Cells were treated as in FIG. 6A. eIF4E was used as a loading control. *represents a cross-reactive band with the anti-LKB1 antisera as characterized previously (Shaw et al. (2004) Proc. Natl. Acad. Sci. USA 101, 3329-3335). FIG. 6C: Endogenous 5′ cap complexes were isolated from LKB1 primary MEFs as in A. 10% of the total cell lysate is shown in the left panels; cap complexes purified on 7-methyl sepharose are shown in right panels. Each were immunoblotted with total 4E-BP1 and eIF4E antibodies. eIF4E is shown as a loading control. FIG. 6D: Hela cells (which are LKB1-deficient) were transiently transfected with vector, FLAG-tagged wild-type, or kinase-dead LKB1 along with an HA-tagged S6K1 or an HA-tagged 4E-BP1 construct, then treated where indicated with 2 mM AICAR for 2 h. S6K1-immunoprecipitates were immunoblotted for activating phosphorylation of S6K1 as before, as well with anti-HA to control for levels. Lysates were immunoblotted with anti-FLAG to detect levels of LKB1 and with anti-HA to detect phosphorylation induced changes in 4E-BP1 mobility on SDS-PAGE.
Kinase Assays and Cellular Analysis: AMPK kinase activity was measured using the SAMS peptide as previously described (7). LKB1 phosphorylation of AMPK was carried out in kinase buffer (50 mM Tris pH 7.5, 10 mM MgCl2, 1 mM DTT, 100 μM ATP) for 20 mins at 30° C. For immunopreciptations of active LKB1 kinase, Flag-tagged LKB1 was co-transfected with an equimolar amount of STRAD expression plasmid into HT1080 cells and immunoprecipitated using M2-agarose (Sigma) 24 h post-transfection in NP40 lysis buffer26. Before kinase assays, immunoprecipitated LKB1 was washed 3× in lysis buffer then 2× in kinase buffer. Soluble MBP-AMPK was added at 5 μg per kinase reaction. […]

Q: Which results are given for `NC(=O)c1ncn([C@@H]2O[C@H](CO)[C@@H](O)[C@H]2O)c1N` [AICAR, 5-aminoimidazole-4-carboxamide 1-β-D-ribofuranoside]?
A: S6K1 and 4E-BP1 phosphorylation (mTOR signaling): inhibition; glucocorticoid induced apoptosis (quiescent cells): protects them from glucocorticoid induced apoptosis; Thr172 phosphorylation of AMPK (AMPK; LKB1 null MEFs): complete loss of Thr172 phosphorylation; phosphorylation of ACC (Ser79) (AMPK; LKB1 null MEFs): nearly abolished; AMPK activation (AMPK; Lkb1-deficient fibroblasts): severely attenuated; AMPK activation (AMPK; wild-type MEFs): activated
